In article PMC10799935, “Discovery of a peripheral 5HT2A antagonist as a clinical candidate for metabolic dysfunction-associated steatohepatitis” (Nature Communications, 2024):
“And” between values parts separate entries of the source, which are not always exact repeats. Identical values can stand only once.

Columns and labels:
[1] = test system: Col1a1; assay: CDAHFD mice: liver Col1a1 RNA expression (qRT-PCR); type: in vivo, mouse; details: for Relative liver Col1a1 expressions in mice, measured using quantitative RT-PCR: individual mice and Average; for Col1A1 mRNA, Mean Diff.: Tukey; for Col1A1 mRNA, Median / Col1A1 mRNA, Mean: n=5; for Col1A1 mRNA, Mean: Column A = 1
Description: C57BL/6 J male mice were purchased from the Japan SLC. Inc (Hamamatsu, Japan). Mice (5 weeks old) were fed Teklad Certitied Irradiated Global 18% protein rodent diet purchased from Dooyeol Biotech Co. Ltd (Seoul, South Korea) during the acclimation period. The liver fibrosis/inflammation-induced groups were CDAHFD-fed (A06071302, Research diet). […]. […] All animal experiments complied with the relevant ethical regulations.
The frozen liver tissue was homogenized and put into QiAzol (Qiagen, Hilden) to isolate RNA, and 4 μg of RNA was synthesized into cDNA using the RevertAid First Strand cDNA synthesis kit (Thermo Fischer, Waltham). The expressions of mouse collagen I (Forward: 5’-TGTGTTCCCTACTCAGCCGTG-3’. Reverse: 5’-CATCGGTCATGCTCTCTCCAA-3’), mouse α-SMA (Forward:5’-TCCTGACGCTGAAGTATCCGAT-3’, Reverse: 5’-GGCCACACAAAGCTCGTTATAG-3’) and mouse 36B4 (Forward: 5’-ACCTCCTTCTTCCAGGCTTT-3’, Reverse: 5’-CTCCAGTCTTTATCAGCTGC-3’) as house-keeping gene were measured using ViiA 7 Real-time PCR system (Thermo Fischer scientific).

[2] = test system: IL-1β; assay: CDAHFD mice: IL-1β immunohistochemical staining; type: in vivo, mouse; parameters: IL-1β immunohistochemical staining (IL1b area), individual mouse / IL-1β immunohistochemical staining (IL1b area), Average: unit not given here; details: for IL-1β immunohistochemical staining (IL1b area), Average / IL-1β immunohistochemical staining (IL1b area), individual mouse: CDAHFD mice; for IL-1β immunohistochemical staining (IL1b area), Average: group average n=4, CDAHFD+Vehicle 8.870, Vehicle 2.958; for IL-1β immunohistochemical staining (IL1b area), individual mouse: individual animals No. 1-4 (Fig.4h)
Description: C57BL/6 J male mice were purchased from the Japan SLC. Inc (Hamamatsu, Japan). Mice (5 weeks old) were fed Teklad Certitied Irradiated Global 18% protein rodent diet purchased from Dooyeol Biotech Co. Ltd (Seoul, South Korea) during the acclimation period. The liver fibrosis/inflammation-induced groups were CDAHFD-fed (A06071302, Research diet). […] All animal experiments complied with the relevant ethical regulations.
Mouse liver tissues were fixed in 4% formalin solution (Sigma–Aldrich, St. Louis, MO, USA) and embedded in paraffin. 4-μm-thick liver sections were deparaffinized in xylene, and rehydrated through descending grades of ethanol. To evaluate liver fibrosis, sections were stained with Sirius red solution and subjected to immunohistochemical staining. Tissue sections, after deparaffinization, underwent a 16-hour incubation in a solution containing 0.1% Direct Red 80 (365548, Sigma-Aldrich) dissolved in Picric acid (P-201, Spectrum Chemical, CA, USA) for Sirius red staining. The sections were briefly immersed in a 0.01 N HCl solution (1129, Ducksan, Republic of Korea) for 2 min. and then rinsed with distilled water for destaining. Subsequently, the sections underwent dehydration through […] grades of ethanol. Immunohistochemical staining was performed using the Polyview Plus HRP-DAB (anti-Rabbit) Kit (ENZ-KIT159-0150, ENZO Life Science, NY, USA) following the manufacturers’ instructions. Deparaffinized sections were boiled in IHC-TekTM Epitope Retrieval solution (IW-1100, IHCWORLD, MD, USA) for 45 min., cooled for 1 h, incubated in a 3% H2O2 solution (69355-0350, JUNSEI, Japan) for 15 min., washed, and then incubated overnight with primary antibodies (α-SMA, ab5694, Abcam, 1:500 dilution; TNF-α, ab6671, Abcam, 1:100 dilution and IL-1β, ab9722, Abcam, 1:100 dilution). Subsequently, the sections were treated with Polyview Plus HRP for 2 h and developed with DAB chromogen/substrate. Stained […] sections were confirmed by light microscopy (Olympus BX53 upright microscope, Tokyo, Japan). The degree of hepatic fibrosis and immunohistochemical staining was quantified by morphometric analysis of stained liver sections using NIH ImageJ software.

[3] = target: T1, 5HT2B (h) (Homo sapiens, UniProt P41595); assay: 5HT subtype antagonism assay (Eurofins Cerep): 5HT2B; type: cell-based
T1 construct: host or cells: CHO cells
Experimental: The derivatives were evaluated at a concentration of 1 μM for their antagonist activity on the 5HT2A receptor (Tables 1–3)[33],[34]. Human 5HT2A stably transfected HEK293 cells (a type of cell derived from kidney embryos)[20] were seeded in a 96-well plate (Costar; 3603) at a density of 9 × 10^4 in 100 μL of minimum essential medium (Welgene; LM007-86) containing 10% dialyzed fetal bovine serum (Gibco; 30067–334) and 1% penicillin/streptomycin (Gibco; 15140-122) and kept in a 37 °C incubator for 24 h. The cells were stained with 100 μL of cytosolic calcium dye using the FLIPR calcium 6 assay solution (Molecular devices, #R8190) supplemented with 2.5 mM probenecid (Sigma; P8761) and incubated for 1 h at 37 °C. After 1 h, the designated amount of the compound was treated in each well and incubated for another 1 h at 37 °C. Then, the cells were loaded in a Flexstation 3 microplate reader (Molecular Devices; FlexStaion) and 50 μL of 5 μM 5HT (serotonin hydrochloride, Sigma; H9523) was injected from a source plate (Nunc 96-well polystyrene conical bottom MicroWell Plate, Thermo; 249662) and the fluorescence intensity (Ex/Em-485nm/ 525 nm) was measured. […]
Antagonism assay Source Stimulus Incubation Measured Detection Method […]

[4] = CDAHFD-fed 11c vs CDAHFD-fed vehicle group
[5] = Column C (11c 5mpk) vs. Column B
[6] = Column D (11c 10mpk) vs. Column B

T1 sequence (P41595 whole entry): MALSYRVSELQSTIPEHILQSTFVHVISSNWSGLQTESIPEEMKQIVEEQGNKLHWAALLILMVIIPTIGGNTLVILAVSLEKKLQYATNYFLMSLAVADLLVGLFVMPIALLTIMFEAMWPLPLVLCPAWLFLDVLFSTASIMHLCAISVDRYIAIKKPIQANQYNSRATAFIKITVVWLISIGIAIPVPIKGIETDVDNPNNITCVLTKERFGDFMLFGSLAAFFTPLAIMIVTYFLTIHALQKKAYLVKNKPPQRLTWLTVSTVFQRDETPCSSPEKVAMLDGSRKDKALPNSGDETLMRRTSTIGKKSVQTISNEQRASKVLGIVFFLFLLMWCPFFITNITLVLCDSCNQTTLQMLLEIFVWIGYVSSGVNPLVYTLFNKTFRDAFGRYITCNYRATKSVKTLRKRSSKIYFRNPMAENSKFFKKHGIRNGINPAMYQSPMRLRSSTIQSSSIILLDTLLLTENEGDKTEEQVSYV

Cc1nc2n(c(=O)c1CCN1CCC(=C3c4ccc(Cl)cc4CCc4cccnc43)CC1)CCCC2O (stereo not shown) [Compound 11c]
Relative liver Col1a1 expressions in mice, measured using quantitative RT-PCR ([1]; CDAHFD+11c 5 mpk): 27.265 and 19.811 and 25.539 and 19.317 and 28.556 | Relative liver Col1a1 expressions in mice, measured using quantitative RT-PCR ([1]; CDAHFD+11c 5 mpk, mean): 24.098 | Relative liver Col1a1 expressions in mice, measured using quantitative RT-PCR ([1]; CDAHFD+11c 10mpk): 18.660 and 20.539 and 29.586 and 37.388 and 28.021 | Relative liver Col1a1 expressions in mice, measured using quantitative RT-PCR ([1]; CDAHFD+11c 10mpk, mean): 26.839 | mRNA expression of Col1a1 in liver tissue [1, 4]: significantly decreased | Col1A1 mRNA, Mean Diff. ([1]; Column A (Vehicle, no CDAHFD) vs. Column C (11c 5mpk)): -23.1 | Col1A1 mRNA, Mean Diff. ([1]; Column A (Vehicle, no CDAHFD) vs. Column D (11c 10mpk)): -25.84 | Col1A1 mRNA, Mean Diff. ([1]; Column B (CDAHFD+vehicle) vs. Column C (11c 5mpk)): 14.99 | Col1A1 mRNA, Mean Diff. ([1]; Column B (CDAHFD+vehicle) vs. Column D (11c 10mpk)): 12.25 | Col1A1 mRNA, Difference between medians: Actual [1, 5]: -15.12 | Col1A1 mRNA, Difference between medians: Hodges-Lehmann [1, 5]: -15.12 | Col1A1 mRNA, Mean Diff. ([1]; Column C (11c 5mpk) vs. Column D (11c 10mpk)): -2.741 | Col1A1 mRNA, Median ([1]; Column C (11c 5mpk)): 25.54, n=5 | Col1A1 mRNA, Mean ([1]; Column C (CDAHFD+11c 5mpk)): 24.1 | Col1A1 mRNA, Difference between medians: Actual [1, 6]: -12.64 | Col1A1 mRNA, Difference between medians: Hodges-Lehmann [1, 6]: -12.18 | Col1A1 mRNA, Median ([1]; Column D (11c 10mpk)): 28.02, n=5 | Col1A1 mRNA, Mean ([1]; Column D (CDAHFD+11c 10mpk)): 26.84 | IL-1β immunohistochemical staining (IL1b area), Average ([2]; 11c 5 mpk): 4.503 | IL-1β immunohistochemical staining (IL1b area), individual mouse ([2]; 11c 5 mpk): 6.500 and 6.265 and 2.688 and 2.559 | IL-1β immunohistochemical staining (IL1b area), Average ([2]; 11c 10mpk): 3.142 | IL-1β immunohistochemical staining (IL1b area), individual mouse ([2]; 11c 10mpk): 2.228 and 4.531 and 2.370 and 3.440 | IL-1β expression (immunohistochemical staining) [2, 4]: significant decrease | Selectivity 2B: % inhibition ([3]; concentration not given): 94% | IC50 ([3]; read-out: Selectivity 2B: IC50): 290 nM
